Source: patent US20100035822A1, “PROLINE-RICH PEPTIDES, PHARMACEUTICAL COMPOSITION, USE OF ONE OR MORE PEPTIDES AND METHOD OF TREATMENT” (priority 2006, published 2010)

Assays:
[1] = system: HUVEC cells (human umbilical vessel endothelial cells); test: NO (nitrite) production in HUVEC cells; assay type: cell-based; details: 24 hours incubation
Experimental: HUVEC cells (human umbilical vessel endothelial cells) were obtained from umbilical vessels, a gift from the University Hospital of the University of São Paulo. Vessels were washed externally with ethanol 96%, and after a diagonal cut at the end of the vessel, a catheter was introduced into the vessel vein, and attached to a three way valve. The vein was washed with 20 ml sterile saline, and the other end of the vessel was tied. One milliliter of a collagenase type IV solution was introduced (0.2 mg/ml/cm of umbilical vessel). The vessel was transferred to a Petri dish (10 cm^2), and incubated for 15 minutes at 37° C. Cells contained inside the cord were removed by massage, and transferred to a sterile tube. Bovine fetal serum was added to a final concentration of 10%, and the suspension was centrifuged for 10 minutes at 3.000 g at 4° C., and the cell pellet was resuspended in 2 ml complete medium (40% Medium 199, 40% DMEM, 18% bovine fetal serum, 1% L-glutamine, 1% penicillin/streptomycin). The cell suspension was transferred to a bottle, previously treated with a 1% gelatin solution (30 min at 4° C.), and 5 mL complete medium was added. The bottle was incubated at 37° C. at 5% CO2 atmosphere. […]
Cells were grown in Petri dishes to 80% confluence. […] The concentration of nitrite, derived from NO, was measured in the extracellular and the intracellular media.

C6 cells from rat glioma = test: NO production in C6 glia cells; assay type: cell-based
Experimental: All reagents for cellular biology experiments were purchased from Invitrogen. C6 cells from rat glioma were cultured in DMEM, supplemented with 10% fetal bovine serum, streptomycin sulphate (100 μg/ml), and penicillin G (100 U/ml). Cultures were kept at 37° C. in 5% CO2 atmosphere. 24 hours before peptides were added, cells were transferred to a 24 well plate (1.5×10^5 cells/ml/well), containing DMEM medium lacking serum. Peptides were added to the cultures to a final concentration of 1 μM, and incubated for 24 hours at 37° C. in 5% CO2 atmosphere. The medium was collected and stored at −80° C.
NO concentration was determined in 1 ml of culture medium, which was incubated with N-ethylmaleimide at a final concentration of 10 mM, for 24 hours. The supernatant of a centrifugation at 1.000 rpm was injected in the NOA equipment (Nitric Oxide Analyser-Sievers) for NO quantification.

normotensive Wistar rats = assay type: in vivo, rat; details: 10 μmoles/Kg of body weight i.v.; 6 hours
Experimental: In vivo studies on the effect of peptides of the present invention were performed on adult male spontaneously hypertensive rats, and normotensive Wistar rats (Rattus novergicus) weighing 250 to 350 g. Animals had free access to chow (Nuvilab) and water, and were submitted to a light-dark cycle of 12 hours each. Procedures involving animals and their care were conducted according to Giles [Giles A. R. Guidelines for the use of animals in biomedical research. Thromb. Haemost. 58: 1078-1084, 1987].
Before drug administration, cardiovascular parameters of the rats were monitored for 40 minutes. Intravenous (I.V.) injection of Ang I (100 ng) was performed in bolus in a total volume of 0.1 mL. 60 minutes after the start of register, 71 nmoles/Kg body weight of peptides SEQ ID NO 8 or SEQ ID NO 4, or captopril were administered I.V. in a total volume of 0.5 mL of 0.9% NaCl solution. […] Arterial blood pressure and heart frequency were continuously monitored for 360 minutes.
Adult male Wistar normotensive rats, weighing between 250 and 350 g, were used in the experimental evaluation of the hypotensive effect of SEQ ID NO 8, as described in Example 12. An i.v. dose of 10 μmoles/Kg of body weight of peptide SEQ ID NO 8 was injected, and arterial blood pressure was monitored for 6 hours (results not shown).

For <ENWPHPQIPP [SEQ ID NO 8], the “increase of NO generation” value [1] was “approximately 100%”, the “rank of efficiency in activating nitrite production” value (C6 cells from rat glioma) was “the most efficient” and the “hypotensive effect in normotensive rats” value (normotensive Wistar rats) was “no significant hypotensive effect”.
